Measured values published in US8680014B2, “Methods for improving fruit production and fruit quality” (Washington State University Research Foundation, priority 2010, dated 2014).
“Also recorded” adds a separate entry of the source. Marks after values point to notes of the source that are not given here.

Assays:
[1] = system: sweet cherry cv ‘Bing’ on ‘Gisela® 1’ rootstock; experiment: Experiment 1: limb trial of PCa and GAs alone or in combination, applied 30 days after anthesis; format: in vivo, sweet cherry (Prunus avium); conditions: for Firmness / Fruit diameter / Fruit weight / TSS: applied at 30 days after anthesis, PCa 150 mg/L, GAs 30 mg/L, at harvest
Experimental: (§1) A limb trial was conducted to evaluate effects of bioactive gibberellins (GA), prohexadione-calcium (PCa), or combinations applied before harvest on fruit quality of sweet cherry. The most efficacious treatments were utilized in a larger scale trial to investigate their effects on the whole tree scale and postharvest characteristics of fruit. Twelve-year-old sweet cherry cv ‘Bing’ on ‘Gisela® 1’ rootstock was selected for both experiments and trained to a central leader architecture. Both trials were carried out at Washington State University Roza farm, Prosser, Wash., USA (N 46.2°, W 119.7°).
Three limbs with uniform vigor were selected from each of 10 trees. Treatments were applied to the limbs randomly spread across ten trees at 30 days after anthesis, approximately coinciding with the onset of pit hardening (stage II of fruit development) in ‘Bing’. The experiment consisted of 10 treatments, including water (the untreated control) and PCa at 150 mg/L. Bioactive GA1, GA3, and GA4/7 (70:30 GA4:GA7) were applied as a foliar spray at 30 mg/L alone or in combination with PCa at 150 mg/L. In addition, the combination of GA3 and GA4/7 at 30 mg/L was applied, or in combination with PCa at 150 mg/L. PCa was the commercial product Apogee® (27.5% PCa; BASF Corp., Research Triangle Park, N.C.) and all bioactive GAs (purity >90%) were purchased from OlChemIm Ltd. (Olomouc, Czech Republic). Each treatment was made with a pressurized handgun sprayer to entire limbs, ceasing at the first runoff.
Twenty fruit per treatment were randomly selected and flagged for monitoring fruit growth by measuring fruit equatorial diameter and height weekly after treatment. All current-season shoots on treated limbs were measured weekly to investigate treatment effects on shoot growth. Harvest timing was determined as the day when the majority of fruit had achieved commercial maturity, based on exocarp color. At harvest, all fruit on treated limbs were harvested and transported to the laboratory for fruit quality analysis. Floral bud density on the treated limbs was assessed by counting all spurs and the number of reproductive buds per spur.
All fruit from each limb in Experiment 1 and sub-samples from Experiment 2 were weighed individually and fruit size distribution was calculated according to fruit weight. Color sorting was conducted manually according to the color comparators developed by CTIFL (Centre Technique Interprofessionnel des Fruit et Legumes, France), which categorize cherry color into 8 levels from Green, CTIFL 1 to CTIFL 7. Fruit number in each category was counted and color distribution was assessed. Subsequently, all fruit were analyzed for firmness and row size measurement with a FirmTech 2 (BioWorks, Inc, Wamego, Kans.) at room temperature. Then, 25 fruit were randomly selected and 5 groups of 5 fruit were mixed for soluble solids content, pH and titratable acidity measurement. Fruit soluble solids were measured using a digital refractometer (Atago, Japan). Approximately 0.5 mL of juice was dropped directly onto the surface of the refractometer and the measurement immediately taken. Juice pH and titratable acidity were measured with a Mettler DL12 Titrator (Mettler-Toledo, Columbus, Ohio).
All trials were established as randomized complete-block designs. All data were subjected to analysis of variance using the General Linear Models (GLM) program of the SAS statistical analysis package (SAS Institute, Cary, N.C.).

plum cv. ‘PP7524-7’ = experiment: BABA application in the spring 4-7 days prior to frost exposure; format: in vivo; conditions: application 4-7 days prior to frost; following spring frost damage
From the text: Finally, BABA application in the spring 4-7 days prior to frost exposure increased fruit set in plum cv. ‘PP7524-7’ following spring frost damage (FIG. 5).

[2] = system: sweet cherry cultivar ‘Van’; experiment: Autumn application of BABA, natural frost damage the following spring; format: in vivo, sweet cherry (Prunus avium)
From the text: (§2) Application of BABA to sweet cherry cultivars ‘Bing,’ ‘Chelan,’ and ‘Van’ in autumn decreased the percentage of flowers killed after natural frost damage the following spring (FIG. 3). […] Bing after spring frost damage (FIG. 4).

[3] = system: sweet cherry cultivar ‘Bing’; experiment: as above; format: in vivo, sweet cherry (Prunus avium)
From the text: as §2

[4] = system: sweet cherry cultivar ‘Chelan’; experiment: as above; format: in vivo, sweet cherry (Prunus avium)
From the text: as §2

[5] = system: Sweet cherry cv. ‘Bing’ trees; experiment: BABA spray in the field; flower fate of limbs in programmable freeze chamber; fruit set, fruit size, leaf area, leaf chlorophyll on other limbs; format: in vivo, sweet cherry (Prunus avium)
Experimental: Sweet cherry cv. ‘Bing’ trees were sprayed in the field with BABA and the fate of flowers from randomly selected sample limbs placed in a programmable freeze chamber was evaluated. Random limbs were removed from the freeze chamber within 10 minutes of reaching selected air temperatures, and were left at room temperature for 1 hour. Pistil/ovary survival was then assessed visually on every flower. Flowers with healthy green stylar and ovary tissue were rated as live. Flowers with discolored (for example, brown) stylar or ovary tissues were rated as dead. Fruit set, fruit size, average leaf area, and leaf chlorophyll content index were evaluated on other limbs of the treated trees.

‘Fuji’ apple trees = experiment: BABA at different bud development stages; branches in programmable freeze chamber five days later; format: in vivo, apple (Malus domestica); conditions: treated 5 days before cold exposure; all developmental stages, except for full opened flowers; compared to control
Experimental: BABA was also applied to ‘Fuji’ apple trees at different bud development stages. Five days later, treated and untreated (control) branches were collected and placed in a programmable freeze chamber. Flowers killed were evaluated as described above. BABA decreased the percentage of flowers killed as compared to control at all developmental stages, except for full opened flowers (FIG. 2).

[6] = system: sweet cherry cv ‘Bing’ on ‘Gisela® 1’ rootstock; experiment: Experiment 2: whole tree trial of PCa alone or with GA3 or GA4/7, applied 30 (FS) or 37 (SS) days after anthesis; fruit quality, storability, sensory analysis; format: in vivo, sweet cherry (Prunus avium)
Experimental: as §1
Experiment 2 included treatments at the whole tree level. Applications of GA3 or GA4/7 (70:30 GA4:GA7) were made to entire trees at 30 mg/L in combination with PCa at 150 mg/L. PCa (150 mg/L) alone was also applied and an untreated control treatment was included. To investigate the role of application timing of plant growth regulators, all treatments were applied at 30 (first spray (FS)) or 37 days after anthesis (second spray (SS)). In this experiment, 24 trees in the same orchard as those in Experiment 1 were selected for whole tree treatment and assigned randomly into one of two 12-tree groups for the timing study. Treatments were then randomly assigned to each of three trees per application timing. Treatments were applied to entire trees by pressurized handgun sprayer to the point of first runoff. All applications were completed in the morning between 0800 and 1100, and applied on days with little or no wind. To prevent spray drift onto neighboring experimental units, all the trees were selected in the same row and 2-3 trees were selected as ‘border’ trees between experimental units.
Twenty fruit per treatment were marked for weekly fruit size measurement, and six current terminal shoots were selected for monitoring shoot growth weekly after treatment. […] Whole tree yield was determined at harvest, in the field, with a portable digital scale. The effect of treatment on total yield per tree (kg tree^−1) and the yield of large fruit (29.8 mm+) (kg tree^−1) was assessed. […]
All fruit from each limb in Experiment 1 and sub-samples from Experiment 2 were weighed individually and fruit size distribution was calculated according to fruit weight. […] Fruit number in each category was counted and color distribution was assessed. Subsequently, all fruit were analyzed for firmness and row size measurement with a FirmTech 2 (BioWorks, Inc, Wamego, Kans.) at room temperature. […] Fruit soluble solids were measured using a digital refractometer (Atago, Japan). […] Juice pH and titratable acidity were measured with a Mettler DL12 Titrator (Mettler-Toledo, Columbus, Ohio). […]

[7] = system: sweet cherry cultivar ‘8011-3’; experiment: CPA applied at full bloom; fruit set and fruit size at harvest; format: in vivo, sweet cherry (Prunus avium); conditions: 30 ppm CPA at full bloom
sweet cherry cv. ‘Bing’ = experiment: as above; format: in vivo, sweet cherry (Prunus avium)
Experimental: Plant growth regulators were applied to limbs of sweet cherry cv. ‘Bing’ at full bloom when essentially all flowers were open. Fruit set was recorded as a percent of available flowers from flower counts made prior to application and fruit counts made just prior to harvest. Fruit set in trees treated with 4-chlorophenoxyacetic acid (CPA) at 10 or 30 ppm was higher than untreated control in both small and large scale trials (FIG. 18). […] (Table 2).

[8] = system: sweet cherry cultivar ‘Tieton’; experiment: as above; format: in vivo, sweet cherry (Prunus avium); conditions: 30 ppm CPA at full bloom
[9] = BABA at both concentrations (100 and 500 ppm), compared to control

C=C1C[C@]23C[C@@]1(O)CC[C@H]2[C@@]12C=C[C@H](O)[C@@](C)(C(=O)O1)[C@H]2[C@@H]3C(=O)O [GA3, gibberellin A3]
Firmness [1]: 316.9^a g/mm
Fruit diameter [1]: 26.49^bc mm
Fruit weight [1]: 8.23^cd g
TSS [1]: 22.23^a Brix

CC(N)CC(=O)O (racemic) [BABA, DL-β-aminobutyric acid]
fruit set (plum cv. ‘PP7524-7’): increased
percentage of flowers killed [2]: decreased
pistil survival ([3]; after spring frost damage): increased
percentage of flowers killed ([3]; natural frost the following spring): decreased
percentage of flowers killed [4]: decreased
percentage of flowers killed ([5]; 100 ppm BABA, −3.5° C. and −4.5° C., compared to control (untreated) trees): decreased
percentage of flowers killed ([5]; 500 ppm BABA, compared to control): decreased
average leaf area [5, 9]: increased
fruit set [5, 9]: increased
fruit size [5, 9]: increased
leaf chlorophyll content index [5, 9]: increased
percentage of flowers killed (‘Fuji’ apple trees): decreased

CCC(=O)C1=C(O)CC(C(=O)O)CC1=O (stereo not shown) [PCa, calcium 3-oxido-4-propionyl-5-oxo-cyclohexene carboxylate]
Firmness [1]: 278.3^c g/mm
Fruit diameter [1]: 24.75^f mm
Fruit weight [1]: 7.26^f g
TSS [1]: 19.18^cd Brix
effect on fruit weight / fruit size compared with the untreated control ([1]; limb trial, single application at 30 days after anthesis): no positive effect
length of current season extension shoots relative to untreated ([1]; single application, after terminal bud set (FIG. 8)): less than half the length
fruit categorized as healthy after storage ([6]; 30 days at 4° C., spray timing not stated, 5% for untreated trees): < 10%
increase in fruit in the ≧10 g category compared to the control ([6]; both first and second spray timings): 15%
percentage of fruit with green and turgid pedicels after storage ([6]; first spray treatments, control 30%): 24%
shoot growth / vegetative extension growth ([6]; single spray, irrespective of timing, compared with the control and PCa+GAs): reduced; also recorded: reductions

O=C(O)COc1ccc(Cl)cc1 [4-CPA, 4-chlorophenoxyacetic acid]
Average fruit size ([7]; at harvest, untreated 10.5): 13.6 g
Fruit Set (%) ([7]; untreated 7.0): 16.0%
fruit set compared with untreated control (sweet cherry cv. ‘Bing’; CPA at 10 or 30 ppm at full bloom, small and large scale trials (FIG. 18)): higher
Fruit Set (%) (sweet cherry cv. ‘Bing’; ‘Bing’, 30 ppm CPA applied to the flowers at full bloom, untreated 30.0): 58.0%
Average fruit size (sweet cherry cv. ‘Bing’; ‘Bing’, 30 ppm CPA at full bloom, at harvest, untreated 7.3): 8.4 g
Average fruit size ([8]; at harvest, untreated 7.2): 8.6 g
Fruit Set (%) ([8]; untreated 26.0): 35.0%

C=C1C[C@]23C[C@@]1(O)CC[C@H]2[C@@]12CC[C@H](O)[C@@](C)(C(=O)O1)[C@H]2[C@@H]3C(=O)O [GA1, gibberellin A1]
Firmness [1]: 280.2^c g/mm
Fruit diameter [1]: 26.52^bc mm
Fruit weight [1]: 8.44^bc g
TSS [1]: 20.84^b Brix
